Values of other authors in PubChem BioAssay AID1259409 (Chemical Carcinogenesis Research Information System (CCRIS), 2018).

System: rodent chemically induced tumor inhibition, incidence and multiplicity
Assay: CCRIS tumor inhibitor studies
Details: Route [Inhibitor]: ORAL, Species: HAMSTER

## CC1=C(/C=C/C(C)=C/C=C/C(C)=C/C(=O)Nc2ccc(O)cc2)C(C)(C)CCC1
Carcinogen: N-NITROSOBIS(2-OXOPROPLYL)AMINE [60599-38-4], DL-ETHIONINE [67-21-0], L-METHIONINE [63-68-3], Carcinogen: N-NITROSOBIS(2-OXOPROPLYL)AMINE [60599-38-4], DL-ETHIONINE [67-21-0], L-METHIONINE [63-68-3], Dose [Inhibitor]: 0, 0.01% IN DIET FOR 55 D BEGINNING ON DAY 50, 1 WK POST LAST CARCINOGEN DOSE (STUDY DURATION: 105 D), Target Tissue: Type of Lesion: PANCREATIC DUCT, CARCINOMA, Dose [Carcinogen]: 50 MG/KG BOP ONCE ON DAY 0, THEN 20 MG/KG TWICE ON DAYS 18 AND 32, 500 MG/KG DL-ETHIONINE 1X/D FOR 4 D BEGINNING ON DAY, Dose [Carcinogen]: 50 MG/KG BOP ONCE ON DAY 0, THEN 20 MG/KG TWICE ON DAYS 18 AND 32, 500 MG/KG DL-ETHIONINE 1X/D FOR 4 D BEGINNING ON DAY, Promoter: CHOLINE-DEFICIENT DIET
  tumour outcome (control, treated, inhibition, significance): 17/17 (100%), 17/17 (100%), 0%, not significant
Carcinogen: N-NITROSOBIS(2-OXOPROPLYL)AMINE [60599-38-4], DL-ETHIONINE [67-21-0], L-METHIONINE [63-68-3], Carcinogen: N-NITROSOBIS(2-OXOPROPLYL)AMINE [60599-38-4], DL-ETHIONINE [67-21-0], L-METHIONINE [63-68-3], Dose [Inhibitor]: 0, 0.04% IN DIET FOR 55 D BEGINNING ON DAY 50, 1 WK POST LAST CARCINOGEN DOSE (STUDY DURATION: 105 D), Target Tissue: Type of Lesion: LIVER: INTRAHEPATIC CHOLANGIOCARCINOMA, Dose [Carcinogen]: 50 MG/KG BOP ONCE ON DAY 0, THEN 20 MG/KG TWICE ON DAYS 18 AND 32, 500 MG/KG DL-ETHIONINE 1X/D FOR 4 D BEGINNING ON DAY, Dose [Carcinogen]: 50 MG/KG BOP ONCE ON DAY 0, THEN 20 MG/KG TWICE ON DAYS 18 AND 32, 500 MG/KG DL-ETHIONINE 1X/D FOR 4 D BEGINNING ON DAY, Promoter: CHOLINE-DEFICIENT DIET
  tumour outcome (control, treated, inhibition, significance): 7/17 (41%), 14/15 (93%), -127%, p<0.01
Carcinogen: N-NITROSOBIS(2-OXOPROPLYL)AMINE [60599-38-4], DL-ETHIONINE [67-21-0], L-METHIONINE [63-68-3], Carcinogen: N-NITROSOBIS(2-OXOPROPLYL)AMINE [60599-38-4], DL-ETHIONINE [67-21-0], L-METHIONINE [63-68-3], Dose [Inhibitor]: 0, 0.04% IN DIET FOR 55 D BEGINNING ON DAY 50, 1 WK POST LAST CARCINOGEN DOSE (STUDY DURATION: 105 D), Target Tissue: Type of Lesion: PANCREATIC DUCT, CARCINOMA, Dose [Carcinogen]: 50 MG/KG BOP ONCE ON DAY 0, THEN 20 MG/KG TWICE ON DAYS 18 AND 32, 500 MG/KG DL-ETHIONINE 1X/D FOR 4 D BEGINNING ON DAY, Dose [Carcinogen]: 50 MG/KG BOP ONCE ON DAY 0, THEN 20 MG/KG TWICE ON DAYS 18 AND 32, 500 MG/KG DL-ETHIONINE 1X/D FOR 4 D BEGINNING ON DAY, Promoter: CHOLINE-DEFICIENT DIET
  tumour outcome (control, treated, inhibition, significance): 17/17 (100%), 15/15 (100%), 0%, not significant
Carcinogen: N-NITROSOBIS(2-OXYPROPYL)AMINE, 60599-38-4, Dose [Inhibitor]: 0.05, 0.1 OR 0.2 MILLIMOLAR/KG DIET FOR 32 WK STARTING 1 WK AFTER THE CARCINOGEN DOSE (STUDY DURATION: 33 WK), Strain/Sex: SYRIAN/FEMALE, Target Tissue: Type of Lesion: COMMON DUCT: ADENOMA, Dose [Carcinogen]: 40 MG/KG ONCE, Promoter: NONE USED
  tumour outcome (control, treated, inhibition, significance): 4/10 (40%), 26/30 (87%), -118%, p<0.025
Carcinogen: N-NITROSOBIS(2-OXYPROPYL)AMINE, 60599-38-4, Dose [Inhibitor]: 0.05, 0.1 OR 0.2 MILLIMOLAR/KG DIET FOR 32 WK STARTING 1 WK AFTER THE CARCINOGEN DOSE (STUDY DURATION: 33 WK), Strain/Sex: SYRIAN/FEMALE, Target Tissue: Type of Lesion: GALL BLADDER: ADENOMA, Dose [Carcinogen]: 40 MG/KG ONCE, Promoter: NONE USED
  tumour outcome (control, treated, inhibition, significance): 6/10 (60%), 29/30 (97%), -62%, not significant
Carcinogen: N-NITROSOBIS(2-OXYPROPYL)AMINE, 60599-38-4, Dose [Inhibitor]: 0.05, 0.1 OR 0.2 MILLIMOLAR/KG DIET FOR 32 WK STARTING 1 WK AFTER THE CARCINOGEN DOSE (STUDY DURATION: 33 WK), Strain/Sex: SYRIAN/FEMALE, Target Tissue: Type of Lesion: LIVER: ADENOMA, Dose [Carcinogen]: 40 MG/KG ONCE, Promoter: NONE USED
  tumour outcome (control, treated, inhibition, significance): 6/10 (60%), 10/30 (33%), 45%, not significant
Carcinogen: N-NITROSOBIS(2-OXYPROPYL)AMINE, 60599-38-4, Dose [Inhibitor]: 0.05, 0.1 OR 0.2 MILLIMOLAR/KG DIET FOR 32 WK STARTING 1 WK AFTER THE CARCINOGEN DOSE (STUDY DURATION: 33 WK), Strain/Sex: SYRIAN/FEMALE, Target Tissue: Type of Lesion: LUNG: ADENOMA, Dose [Carcinogen]: 40 MG/KG, ONCE, ONE WK PRIOR TO START OF AGENT TREATMENT, Promoter: NONE USED
  tumour outcome (control, treated, inhibition, significance): 3/10 (30%), 18/30 (60%), -100%, not significant
Carcinogen: N-NITROSOBIS(2-OXYPROPYL)AMINE, 60599-38-4, Dose [Inhibitor]: 0.05, 0.1 OR 0.2 MILLIMOLAR/KG DIET FOR 32 WK STARTING 1 WK AFTER THE CARCINOGEN DOSE (STUDY DURATION: 33 WK), Strain/Sex: SYRIAN/FEMALE, Target Tissue: Type of Lesion: PANCREAS: ADENOMA, Dose [Carcinogen]: 40 MG/KG ONCE, Promoter: NONE USED
  tumour outcome (control, treated, inhibition, significance): 10/10 (100%), 30/30 (100%), 0%, not significant
Carcinogen: N-NITROSOBIS(2-OXYPROPYL)AMINE, 60599-38-4, Dose [Inhibitor]: 0.05, 0.1 OR 0.2 MILLIMOLAR/KG DIET FOR 32 WK STARTING 1 WK AFTER THE CARCINOGEN DOSE (STUDY DURATION: 33 WK), Strain/Sex: SYRIAN/FEMALE, Target Tissue: Type of Lesion: PANCREAS: CARCINOMA, Dose [Carcinogen]: 40 MG/KG ONCE, Promoter: NONE USED
  tumour outcome (control, treated, inhibition, significance): 4/10 (40%), 16/30 (53%), -33%, not significant
Carcinogen: N-NITROSOBIS(2-OXYPROPYL)AMINE, 60599-38-4, Dose [Inhibitor]: 0.05, 0.1 OR 0.2 MILLIMOLAR/KG DIET FOR 32 WK STARTING 1 WK AFTER THE CARCINOGEN DOSE (STUDY DURATION: 33 WK), Strain/Sex: SYRIAN/MALE, Target Tissue: Type of Lesion: COMMON DUCT: ADENOMA, Dose [Carcinogen]: 40 MG/KG ONCE, Promoter: NONE USED
  tumour outcome (control, treated, inhibition, significance): 4/12 (33%), 20/21 (95%), -188%, not significant
Carcinogen: N-NITROSOBIS(2-OXYPROPYL)AMINE, 60599-38-4, Dose [Inhibitor]: 0.05, 0.1 OR 0.2 MILLIMOLAR/KG DIET FOR 32 WK STARTING 1 WK AFTER THE CARCINOGEN DOSE (STUDY DURATION: 33 WK), Strain/Sex: SYRIAN/MALE, Target Tissue: Type of Lesion: GALL BLADDER: ADENOMA, Dose [Carcinogen]: 40 MG/KG ONCE, Promoter: NONE USED
  tumour outcome (control, treated, inhibition, significance): 3/12 (25%), 20/21 (95%), -280%, not significant
Carcinogen: N-NITROSOBIS(2-OXYPROPYL)AMINE, 60599-38-4, Dose [Inhibitor]: 0.05, 0.1 OR 0.2 MILLIMOLAR/KG DIET FOR 32 WK STARTING 1 WK AFTER THE CARCINOGEN DOSE (STUDY DURATION: 33 WK), Strain/Sex: SYRIAN/MALE, Target Tissue: Type of Lesion: LIVER: ADENOMA, Dose [Carcinogen]: 40 MG/KG ONCE, Promoter: NONE USED
  tumour outcome (control, treated, inhibition, significance): 6/12 (50%), 7/21 (33%), 34%, not significant
